Measurements reported in publication PMC6508865, “Dynamics of thymol dietary supplementation in quail (Coturnix japonica): Linking bioavailability, effects on egg yolk total fatty acids and performance traits” (PLoS ONE, 2019).
Where two headings read alike, the source gives them in different places.

Tests used:
[1] = tested on: female Japanese quail (Coturnix japonica); experiment: General welfare quality assessment; assay type: in vivo; details: 2, 4, 6.25 g of THY/kg feed
Procedure: A welfare assessment based on observations of physical characteristics was made. Female skin lesions and plumage status were evaluated following a procedure proposed by Pellegrini et al. that is an adapted version of the protocol developed by the Welfare Quality consortium. Briefly, skin lesions, which include wounds that have not healed in the legs, rear end, chest, cloacae and wings were determined using a score scale from 0 to 2, where "0" represents no lesions or scratches, "1" represents at least one lesion < 0.5 cm diameter or less than 3 pecks (punctiform damage ~ 0.1 cm of diameter) or scratches, and "2" reflects one lesion ≥ 0.5 cm of diameter or more than 3 pecks or scratches. Plumage damage was also determined using a score scale from 0 to 2 as follows: "0" represents individuals with no plumage damage or slight wear (only single feathers lacking), "1" represent individuals with one or more body parts that have moderate wear (i.e. damaged feathers worn or deformed) or one or more featherless areas < 1.5 cm in diameter at the larger extent and "2" corresponded to individuals that have at least one featherless area > 1.5 cm in diameter at the largest extent. […]

[2] = Thymol quantification in quail droppings (HS-SPME/GC-MS) during chronic dietary supplementation; assay type: in vivo, Coturnix japonica; details: for concentration at 2 days / concentration at 9 days / concentration at 16 days / concentration at 26 days: female, Japanese quail (Coturnix japonica), droppings, oral, read-out: THY concentration in droppings
From the text: A total of 50 eighty-five days-old female quail of homogeneous body weights (251 ± 1 g; Mean ± SE) and in their egg-laying peak were selected from an initial group of 96 female individuals. All birds continued receiving a basal diet between 85 and 100 days of age and all variables (see below for details) were registered along this period (Pre-supplementation period, Fig 1). From 100 to 128 days of age (S period, Fig 1), females were randomly assigned to either a chronic dietary supplementation with one of 3 THY doses (THY2, THY4 and THY6; 10 females each) or to one of 2 control groups (basal diet, BASAL, and basal diet with vehicle solution, VEHICLE; 10 females each). Once finished the S period, half of the quail were slaughtered for histological analysis (n = 25; Slaughter 1, Fig 1) and the other half were subjected to a pS period of 21 days, during which all females received the BASAL diet (pS, Fig 1). After this period, the remaining 25 animals were also slaughtered for histological analysis (Slaughter 2, Fig 1). In this way, we assessed whether THY induced changes in variables indicative of tissue damage and if so, whether the potential damages could reverse after 3 weeks of supplement withdrawal.
To assess changes in egg yolk total FA composition, egg physical characteristics, laying rate, body weight, feed intake and general welfare, during the S and pS periods, five sampling points were defined (Sample points, Fig 1): one initial sample point (at 0 days of S); three sample points during the S period (at 7, 14 and 28 days of S); and one sample point at the end of the pS period (21 days of pS). It should be noted that for determinations of THY concentration, eggs and quail droppings were collected offset from the other variables measured by 2 days, thus were collected on days 2, 9, 16, and 26 days of S, and 17 days of pS, respectively.
Thymol was commercially obtained from Sigma-Aldrich (SAFC®, ⩾99%; FCC, Saint Louis, MO, USA). Supplemented quail were provided 2, 4 or 6.25 g of THY per kg of feed. For this end, THY was prepared in a 2.4, 4.8 and 7.5% w/v ethanolic solution and uniformly sprayed on fresh feed. The feed was prepared and administrated daily, to minimize THY volatilization from feed before its consumption by females. The doses were selected considering two factors. The first, the concentration range for which the transfer of THY to the chicken and/or quail egg has been established. Second, the concentrations of THY supplementation that have shown biological effects. […] In this context, THY4 is and intermediate dose between the last two. Nutrient and FA compositions of the diets supplied were identical between each other and are reported in S1, S2 and S3 Tables, and are in accordance with the National Research Council recommendation.
Egg yolks and droppings of each female were obtained at each sample point (Sample points, Fig 1) and THY concentration was immediately measured by head space-solid phase microextraction followed by gas chromatography-mass spectrometry (HS-SPME/GC-MS) according to Fernandez et al.. SPME was performed with a manual holder with 100 um polydimethylsiloxane (PDMS) fiber. An aliquot of egg yolk (3 g), droppings (5 g) or feed (5 g) was put in a sealed 20 mL glass vial, spiked at the corresponding level with the standard m-cresol (Sigma-Aldrich; ≥ 99% (GC); Saint Louis, MO, USA) stock solution, and vortexed for 5 min. The vials were placed in a water bath and the PDMS fiber was exposed to the headspace for 30 min at 60°C and 5 min at 40°C for egg yolk and droppings or feed, respectively. The fiber was then inserted directly into the GC injector for desorption at 250°C for 10 min in splitless mode. Chromatography analysis was carried out in a Perkin Elmer Clarus 600 equipped with a PSSI injector and a quadrupole MS detector (Perkin Elmer, USA). Turbo Mass 5.4.2 software was used to control and acquire data from GC–MS. […]

[3] = THY2, 2 g of thymol/kg of feed, pS, 17 days of supplement withdrawal
[4] = THY4, 4 g of thymol/kg of feed, pS, 17 days of supplement withdrawal
[5] = THY6, 6.25 g of thymol/kg of feed, pS, 17 days of supplement withdrawal

- effect on general well-being [1]: did not affect
- Percentage of THY transferred to droppings in relation to the amount ingested ([2]; THY2, 2 g of thymol/kg of feed, 2 days of S): 0.53%
- Percentage of THY transferred to droppings in relation to the amount ingested ([2]; THY2, 2 g of thymol/kg of feed, 9 days of S): 2.33%
- Percentage of THY transferred to droppings in relation to the amount ingested ([2]; THY2, 2 g of thymol/kg of feed, 16 days of S): 2.41%
- Percentage of THY transferred to droppings in relation to the amount ingested ([2]; THY2, 2 g of thymol/kg of feed, 26 days of S): 3.47%
- Percentage of THY transferred to droppings in relation to the amount ingested [2, 3]: 0.04%
- THY concentration in droppings [2, 3]: 4.37 ng/g
- Percentage of THY transferred to droppings in relation to the amount ingested ([2]; THY4, 4 g of thymol/kg of feed, 2 days of S): 0.25%
- Percentage of THY transferred to droppings in relation to the amount ingested ([2]; THY4, 4 g of thymol/kg of feed, 9 days of S): 1.78%
- Percentage of THY transferred to droppings in relation to the amount ingested ([2]; THY4, 4 g of thymol/kg of feed, 16 days of S): 1.91%
- Percentage of THY transferred to droppings in relation to the amount ingested ([2]; THY4, 4 g of thymol/kg of feed, 26 days of S): 2.11%
- Percentage of THY transferred to droppings in relation to the amount ingested [2, 4]: 0.12%
- THY concentration in droppings [2, 4]: 30.58 ng/g
- Percentage of THY transferred to droppings in relation to the amount ingested ([2]; THY6, 6.25 g of thymol/kg of feed, 2 days of S): 0.21%
- Percentage of THY transferred to droppings in relation to the amount ingested ([2]; THY6, 6.25 g of thymol/kg of feed, 9 days of S): 1.33%
- Percentage of THY transferred to droppings in relation to the amount ingested ([2]; THY6, 6.25 g of thymol/kg of feed, 16 days of S): 1.74%
- Percentage of THY transferred to droppings in relation to the amount ingested ([2]; THY6, 6.25 g of thymol/kg of feed, 26 days of S): 1.57%
- Percentage of THY transferred to droppings in relation to the amount ingested [2, 5]: 0.09%
- THY concentration in droppings [2, 5]: 37.95 ng/g
- THY transferred to the droppings, of the amount THY ingested ([2]; during the plateau, across THY2, THY4, THY6): 1.57–3.47%
- concentration at 2 days ([2]; 2 g/kg of feed, THY2, 2 g of thymol/kg of feed, 2 days of S): 51.8 ng/g
- concentration at 9 days ([2]; 2 g/kg of feed, THY2, 2 g of thymol/kg of feed, 9 days of S): 229 ng/g
- concentration at 16 days ([2]; 2 g/kg of feed, THY2, 2 g of thymol/kg of feed, 16 days of S): 237 ng/g
- concentration at 26 days ([2]; 2 g/kg of feed, THY2, 2 g of thymol/kg of feed, 26 days of S): 342 ng/g
- concentration at 2 days ([2]; 4 g/kg of feed, THY4, 4 g of thymol/kg of feed, 2 days of S): 63.5 ng/g
- concentration at 9 days ([2]; 4 g/kg of feed, THY4, 4 g of thymol/kg of feed, 9 days of S): 459 ng/g
- concentration at 16 days ([2]; 4 g/kg of feed, THY4, 4 g of thymol/kg of feed, 16 days of S): 491 ng/g
- concentration at 26 days ([2]; 4 g/kg of feed, THY4, 4 g of thymol/kg of feed, 26 days of S): 542 ng/g
- concentration at 2 days ([2]; 6.25 g/kg of feed, THY6, 6.25 g of thymol/kg of feed, 2 days of S): 85 ng/g
- concentration at 9 days ([2]; 6.25 g/kg of feed, THY6, 6.25 g of thymol/kg of feed, 9 days of S): 550 ng/g
- concentration at 16 days ([2]; 6.25 g/kg of feed, THY6, 6.25 g of thymol/kg of feed, 16 days of S): 721 ng/g
- concentration at 26 days ([2]; 6.25 g/kg of feed, THY6, 6.25 g of thymol/kg of feed, 26 days of S): 650 ng/g
Structure (SMILES): Cc1ccc(C(C)C)c(O)c1 [THY, 2 isopropyl-5-methylphenol]
